Experimental data: patent US20250059162A1, “MULTI-PROTEIN DEGRADATION AGENT HAVING IMIDE SKELETON” (SUZHOU KINTOR PHARMACEUTICALS, INC., priority 2021, published 2025)

How the values were obtained:
Type in all cases: cell-based
c-Myc protein = target: T1, c-Myc protein (Homo sapiens, UniProt P01106); assay: c-Myc protein degradation in HL60 cells (Western blot); details: for remaining activity at 0.01 µM: HL-60, compound at 10 nM, 24 h, gray value relative to Ctrl (DMSO), read-out: Remaining amount of c-Myc protein (@10 nM/Ctrl)
T1 construct: degradation of myc and GSPT1 proteins in HL60 cells; endogenous in cells; host or cells: HL60
T1 sequence (P01106 whole entry): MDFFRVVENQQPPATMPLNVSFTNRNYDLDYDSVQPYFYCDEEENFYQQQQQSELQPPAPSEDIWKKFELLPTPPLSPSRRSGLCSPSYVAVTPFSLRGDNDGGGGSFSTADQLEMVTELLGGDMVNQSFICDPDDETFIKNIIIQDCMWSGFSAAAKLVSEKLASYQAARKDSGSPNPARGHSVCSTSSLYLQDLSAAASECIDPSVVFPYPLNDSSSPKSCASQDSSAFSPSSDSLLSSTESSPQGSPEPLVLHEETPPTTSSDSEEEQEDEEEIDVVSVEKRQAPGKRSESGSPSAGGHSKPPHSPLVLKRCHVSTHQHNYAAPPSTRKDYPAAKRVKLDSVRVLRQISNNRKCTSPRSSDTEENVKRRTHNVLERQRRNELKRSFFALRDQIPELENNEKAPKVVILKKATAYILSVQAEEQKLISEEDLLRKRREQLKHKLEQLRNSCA
Experimental: (§1) HL60 cells in the exponential growth phase were digested and plated into a 6-well plate at 1×10^6 cells per well. The cell culture medium was RPMI-1640 (meilunbio, MA0215). After a day of adherent growth of the cells, the compound of the present invention was added as a test drug for culture, and proteins were extracted 24 h later (Ctrl meant adding only DMSO at the same volume).
(§2) In the 6-well plate, the culture medium RPMI-1640 (meilunbio, MA0215) was removed, and the cells were washed once with PBS, digested with trypsin, and centrifuged and collected separately into 1.5 mL centrifuge tubes. 100 μL of RIPA lysis buffer (containing 100 μM PMSF) was added to each tube, mixed thoroughly, allowed to stand on ice for 30 min and then centrifuged at 12000 rpm at 4° C. using a centrifuge for 20 min. The supernatant was used for Western blotting experiments. The sample can be stored at −80° C.
(§3) By using the BCA protein concentration determination kit (from Thermo Fisher, Cat. No. 23225), the BSA standard determination solution and the samples to be tested (the samples to be tested can be diluted and then tested) were prepared according to the table A below. Samples were added to the 96-well plate. Each well was supplemented with PBS to 20 μL, and then 200 μL of BCA working solution (prepared according to the kit) was added respectively and mixed evenly. The plate was placed at 60° C. for 10 min, and then the absorbance at 562 nm was detected. After the reading was recorded, a standard curve was plotted using concentration gradients of the standards, and the absorbance of the samples was substituted to calculate the protein concentration of the samples.
(§4) • 2.1 Protein denaturation: RIPA protein buffer (purchased from Solarbio, Cat. No. R0010) and 5× Loading Buffer (SDS, glycerin, bromophenol blue, TRIS) (purchased from Solarbio, Cat. No. P1040) were added, and the protein samples were denatured at 100° C. for 5 min. • 2.2 Sample loading and electrophoresis: 10% precast gel and the corresponding electrophoresis buffer were used. The same mass of protein sample and protein ladder (purchased from thermo, Cat. No. 26617) were loaded into each well, and electrophoresis at 200 V was performed for 30 min. • 2.3 […]: The gel was excised to remove the excess part. Transferring to PVDF membrane was performed by the wet transfer method (before use, it was necessary to activate the PVDF membrane with methanol for 1 min) at 300 mA for 2 h, during which a lot of heat was generated, and thus cooling with an ice box was required. • 2.4 Blocking: After the transferring, the PVDF membrane was placed in 5% skim milk and blocked with shaking at room temperature for 1 h. • 2.5 Incubating with primary antibody: The PVDF membrane was cut according to the molecular weight indicated on the marker and placed in c-myc (purchased from abcam, Cat. No. ab32072), or GSPT1 (purchased from abcam, Cat. No. ab234433), or CK1α (purchased from abcam, Cat. No. ab206652), or IKZF2 (purchased from proteintech, Cat. No. 13554-1-AP), and GAPDH (purchased from CST, Cat. No. #97166) primary antibodies. The antibodies were diluted with TBST buffer (a solution prepared from TRIS, KCL and NaCl and adjusted to pH 7.4 with hydrochloric acid, and Tween 20 was added) at a ratio of 1:1000, and blocked overnight on a shaker at 4° C. • 2.6 Incubating with secondary antibody: The PVDF membrane incubated with the primary antibody was washed with TBST for 3 times, each time for 10 min. After washing, the membrane was placed in the secondary antibody of the corresponding species, and incubated at room temperature in a shaker for 2 h. • 2.7 Washing membrane and exposure: After incubated with the secondary antibodies, the membrane was washed 3 times with TBST on a shaker, 10 minutes each time. […]

CK1α protein = target: T2, CK1α protein (Homo sapiens, UniProt P48729); assay: CK1α protein degradation (Western blot); details: compound at 10 nM, 24 h, gray value relative to Ctrl (DMSO)
T2 construct: endogenous in cells; host or cells: HL60
T2 sequence (P48729 whole entry): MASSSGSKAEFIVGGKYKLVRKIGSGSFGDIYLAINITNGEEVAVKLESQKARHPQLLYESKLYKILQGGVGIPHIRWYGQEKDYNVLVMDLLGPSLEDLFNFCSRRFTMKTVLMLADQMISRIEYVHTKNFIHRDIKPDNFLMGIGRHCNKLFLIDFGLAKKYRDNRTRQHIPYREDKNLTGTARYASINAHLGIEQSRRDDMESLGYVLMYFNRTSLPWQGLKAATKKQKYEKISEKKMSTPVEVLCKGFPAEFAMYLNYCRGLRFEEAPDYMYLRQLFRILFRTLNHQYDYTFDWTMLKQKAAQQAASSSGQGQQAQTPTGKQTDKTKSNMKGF
Experimental: as §1, §2, §3
(§5) • 2.1 Protein denaturation: RIPA protein buffer (purchased from Solarbio, Cat. No. R0010) and 5× Loading Buffer (SDS, glycerin, bromophenol blue, TRIS) (purchased from Solarbio, Cat. No. P1040) were added, and the protein samples were denatured at 100° C. for 5 min. • 2.2 Sample loading and electrophoresis: 10% precast gel and the corresponding electrophoresis buffer were used. […]

IKZF2 protein = target: T3, IKZF2 protein (Homo sapiens, UniProt Q9UKS7); assay: IKZF2 protein degradation (Western blot); details: compound at 10 nM, 24 h, gray value relative to Ctrl (DMSO)
T3 construct: endogenous in cells; host or cells: HL60
T3 sequence (Q9UKS7 whole entry): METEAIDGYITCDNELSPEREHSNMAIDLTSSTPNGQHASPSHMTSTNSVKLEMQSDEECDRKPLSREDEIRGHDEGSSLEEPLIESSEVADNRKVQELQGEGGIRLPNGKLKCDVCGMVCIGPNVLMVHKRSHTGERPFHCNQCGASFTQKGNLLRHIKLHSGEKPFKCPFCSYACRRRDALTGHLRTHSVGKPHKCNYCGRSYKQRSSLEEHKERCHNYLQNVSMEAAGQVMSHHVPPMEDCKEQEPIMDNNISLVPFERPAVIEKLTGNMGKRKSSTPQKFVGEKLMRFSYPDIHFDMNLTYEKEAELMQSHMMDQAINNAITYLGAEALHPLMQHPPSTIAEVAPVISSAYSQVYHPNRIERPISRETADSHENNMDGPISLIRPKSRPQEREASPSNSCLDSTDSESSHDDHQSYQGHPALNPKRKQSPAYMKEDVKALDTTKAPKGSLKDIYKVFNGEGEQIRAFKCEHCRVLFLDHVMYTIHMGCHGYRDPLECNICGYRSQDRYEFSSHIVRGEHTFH
Experimental: as §1, §2, §3, §5

GSPT1 protein = target: T4, GSPT1 protein (Homo sapiens, UniProt P15170); assay: GSPT1 protein degradation in HL60 cells (Western blot); details: for remaining GSPT1 protein at 0.01 µM: HL-60, compound at 10 nM, 24 h, gray value relative to Ctrl (DMSO), read-out: Remaining amount of GSPT1 protein (@10 nM/Ctrl)
T4 construct: degradation of myc and GSPT1 proteins in HL60 cells; endogenous in cells; host or cells: HL60
T4 sequence (P15170 whole entry): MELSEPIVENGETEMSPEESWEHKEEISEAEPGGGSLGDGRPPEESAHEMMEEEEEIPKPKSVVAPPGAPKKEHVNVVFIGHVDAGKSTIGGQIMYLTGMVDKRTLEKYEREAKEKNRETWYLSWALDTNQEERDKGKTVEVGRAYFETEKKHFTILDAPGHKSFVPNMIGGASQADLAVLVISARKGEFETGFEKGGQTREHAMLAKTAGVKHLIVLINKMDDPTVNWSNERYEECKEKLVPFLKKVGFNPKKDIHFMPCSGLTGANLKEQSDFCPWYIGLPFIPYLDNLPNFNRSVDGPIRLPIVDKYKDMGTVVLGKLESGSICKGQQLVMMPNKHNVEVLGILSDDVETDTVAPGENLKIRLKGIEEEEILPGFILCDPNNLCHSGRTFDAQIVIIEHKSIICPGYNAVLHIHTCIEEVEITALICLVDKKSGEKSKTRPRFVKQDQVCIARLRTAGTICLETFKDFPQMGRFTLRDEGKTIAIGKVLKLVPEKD
Experimental: as §1, §2, §3, §4

HL60 cells = assay: Anti-proliferation on HL60 cells (CellTiter-Glo, 3 days); details: Homo sapiens, HL-60, 72 h, 3 days incubation, CTG luminescence, IC50 by XLfit, read-out: HL60 cells Proliferation inhibitory activity
Method in brief: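 Log-phase cells were plated at 20000 cells/well and treated with compound dilutions in RPMI-1640 for 3 days, with 0.1% DMSO controls. Proliferation was read by CellTiter-Glo luminescence. IC50 was fitted from the inhibition rates.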

Row | SMILES | Degradation of c-Myc protein in HL60 cells at 10 nM (FIG. 1, in words) (c-Myc protein; 10 nM) | Remaining amount of CK1α protein (@10 nM/Ctrl) (CK1α protein) | Remaining amount of IKZF2 protein (@10 nM/Ctrl) (IKZF2 protein) | remaining GSPT1 protein at 0.01 µM (GSPT1 protein) | IC50 (HL60 cells) | remaining activity at 0.01 µM (c-Myc protein) | Degradation of GSPT1 protein in HL60 cells at 100 nM (FIG. 3, in words) (GSPT1 protein) | Degradation of GSPT1 protein in HL60 cells at 300 nM (FIG. 2, FIG. 3, in words) (GSPT1 protein) | Degradation of c-Myc protein in HL60 cells at 300 nM (FIG. 2, FIG. 3, in words) (c-Myc protein)
1 | O=C1CCC(N2Cc3cc(CNC(=O)C(F)(F)c4ccc(Cl)cc4)ccc3C2=O)C(=O)N1 (centres unmarked) [CC-90009, reference compound] | no ability to degrade c-Myc protein | 78% | 85% |  |  |  |  |  | 
2 | O=C1CCC(N2Cc3cc(CNCC4CCN(c5ncc(-c6ccccc6)cc5C(F)(F)F)CC4)ccc3C2=O)C(=O)N1 (centres unmarked) [Compound A92] |  |  |  | 0% | < 0.2 nM | 6% |  |  | 
3 | O=C1CCC(N2Cc3cc(CNCC4CCN(c5ncc(-c6cccc(F)c6)cc5C(F)(F)F)CC4)ccc3C2=O)C(=O)N1 (centres unmarked) [Compound A93] |  |  |  | 0% | 1.6 nM | 12% |  |  | 
4 | Cc1cccc(-c2cnc(N3CCC(CNCc4ccc5c(c4)CN(C4CCC(=O)NC4=O)C5=O)CC3)c(C(F)(F)F)c2)c1 (centres unmarked) [Compound A94] |  |  |  | 0% | 0.1 nM | 0% |  |  | 
5 | COc1cccc(-c2cnc(N3CCC(CNCc4ccc5c(c4)CN(C4CCC(=O)NC4=O)C5=O)CC3)c(C(F)(F)F)c2)c1 (centres unmarked) [Compound A95] |  |  |  | 0% | < 0.2 nM | 0% |  |  | 
6 | N#Cc1cc(-c2cccc(Cl)c2)cnc1N1CCC(CNCc2ccc3c(c2)CN(C2CCC(=O)NC2=O)C3=O)CC1 (centres unmarked) [Compound A98] |  |  |  | 3% | 1 nM | 157% |  |  | 
7 | COC(=O)c1cc(-c2cccc(Cl)c2)cnc1N1CCC(CNCc2ccc3c(c2)CN(C2CCC(=O)NC2=O)C3=O)CC1 (centres unmarked) [Compound A100] |  |  |  | 0% | < 0.2 nM | 0% |  |  | 
8 | O=C1CCC(N2Cc3cc(CNCC4CCN(c5cnc(-c6cccc(Cl)c6)cn5)CC4)ccc3C2=O)C(=O)N1 (centres unmarked) [Compound A102] |  |  |  | 0% | 0.5 nM | 0% |  |  | 
9 | N#Cc1cc(-c2cccc(Cl)c2)ccc1N1CCC(CNCc2ccc3c(c2)CN(C2CCC(=O)NC2=O)C3=O)CC1 (centres unmarked) [Compound A103] |  |  |  | 0% | 1.5 nM | 6% |  |  | 
10 | CC(NCc1ccc2c(c1)CN(C1CCC(=O)NC1=O)C2=O)C1CCN(c2ncc(-c3cccc(Cl)c3)cc2F)CC1 (centres unmarked) [Compound A105] |  |  |  | 7% | 55 nM | 333% |  |  | 
11 | O=C1CCC(N2Cc3cc(CNCC4CCN(c5ncc(-c6ccccc6F)cc5F)CC4)ccc3C2=O)C(=O)N1 (centres unmarked) [Compound A107] |  |  |  | 1% | 9.1 nM | 46% |  |  | 
12 | O=C1CCC(N2Cc3cc(CNCC4CCN(c5ncc(-c6cccc(F)c6)cc5F)CC4)ccc3C2=O)C(=O)N1 (centres unmarked) [Compound A108] |  |  |  | 29% | < 0.2 nM | 2% |  |  | 
13 | O=C1CCC(N2Cc3cc(CNCC4CCN(c5ncc(-c6ccc(F)cc6)cc5F)CC4)ccc3C2=O)C(=O)N1 (centres unmarked) [Compound A109] |  |  |  | 6% | 6.2 nM | 3% |  |  | 
14 | O=C1CCC(N2Cc3cc(CNCC4CCN(c5ncc(-c6cccc(C(F)(F)F)c6)cc5F)CC4)ccc3C2=O)C(=O)N1 (centres unmarked) [Compound A110] |  |  |  | 0% | < 0.2 nM | 3% |  |  | 
15 | N#Cc1cccc(-c2cnc(N3CCC(CNCc4ccc5c(c4)CN(C4CCC(=O)NC4=O)C5=O)CC3)c(F)c2)c1 (centres unmarked) [Compound A111] |  |  |  | 2% | 1.3 nM | 6% |  |  | 
16 | COc1cccc(-c2cnc(N3CCC(CNCc4ccc5c(c4)CN(C4CCC(=O)NC4=O)C5=O)CC3)c(F)c2)c1 (centres unmarked) [Compound A112] |  |  |  | 0% | < 0.2 nM | 0% |  |  | 
17 | O=C1CCC(N2Cc3cc(NCCC4CCN(c5ncc(-c6cccc(Cl)c6)cc5C(F)(F)F)CC4)ccc3C2=O)C(=O)N1 (centres unmarked) [Compound A131] |  |  |  |  | 35.8 nM |  | significantly degrade GSPT1 protein | simultaneously degrade both GSPT1 and c-Myc proteins | simultaneously degrade both GSPT1 and c-Myc proteins
18 | O=C1CCC(N2Cc3cc(CCCC4CCN(c5ncc(-c6cccc(Cl)c6)cc5C(F)(F)F)CC4)ccc3C2=O)C(=O)N1 (centres unmarked) [Compound A134] |  |  |  |  | 223 nM |  | significantly degrade GSPT1 protein | simultaneously degrade both GSPT1 and c-Myc proteins | simultaneously degrade both GSPT1 and c-Myc proteins
19 | O=C1CCC(N2Cc3cc(CNCC4CCN(c5ncc(-c6cccc(Cl)c6)cc5C(F)(F)F)CC4)c(F)cc3C2=O)C(=O)N1 (centres unmarked) [Compound A140] |  |  |  | 47% | 17.1 nM | 95% |  |  | 
20 | N#Cc1cc(CNCC2CCN(c3ncc(-c4cccc(Cl)c4)cc3C(F)(F)F)CC2)ccc1C(=O)NC1CCC(=O)NC1=O (centres unmarked) [Compound A162] |  |  |  |  | 231 nM |  | significantly degrade GSPT1 protein | simultaneously degrade both GSPT1 and c-Myc proteins | simultaneously degrade both GSPT1 and c-Myc proteins
21 | O=C1C[C@H](N2Cc3cc(CNCC4CCN(c5ncc(-c6cccc(Cl)c6)cc5C(F)(F)F)CC4)ccc3C2=O)C(=O)N1 [Compound A169] |  |  |  | 65% | 46.3 nM | 105% |  | significantly degrade GSPT1 protein | simultaneously degrade both GSPT1 and c-Myc proteins
